Test [1] has as its target GlunN1/GluN2A glutamate receptors (Homo sapiens (Human), UniProt Q05586+Q12879). The experiment in a line: Whole-cell patch clamp of mammalian cells (Ionworks Barracuda), positive allosteric modulation, GluN1/GluN2A. In kind it is cell-based. As for the experimental part: (§1) The measurements were performed using Ion Works Barracuda platform following this procedure:
(§2) Electrophysiological Procedures:
(§3) • a) Intracellular solution (mM): 50 mM CsCl, 90 mM CsF, 2 mM MgCl2, 5 mM EGTA, 10 mM HEPES. Adjust to pH 7.2 with CsOH. • b) Extracellular solution, HB-PS (composition in mM): NaCl, 137; KCl, 1.0; CaCl2), 5; HEPES, 10; Glucose, 10; pH adjusted to 7.4 with NaOH (refrigerated until use). • c) Holding potential: −70 mV, potential during agonist/PAM application: −40 mV. Recording Procedure: • a) Extracellular buffer will be loaded into the PPC plate wells (11 μL per well). Cell suspension will be pipetted into the wells (9 μL per well) of the PPC planar electrode. • b) Whole-cell recording configuration will be established via patch perforation with membrane currents recorded by on-board patch clamp amplifiers. • c) Two recordings (scans) will be performed. First, during pre-application of test article alone (duration of pre-application—[…]) and second, during test articles and agonist (EC20 L-glutamate and 30 μM glycine) co-application to detect positive modulatory effects of the test article. […] Potentiating Effect of Positive Allosteric Modulators (PAM) on the Channel
(§4) PAM concentration-response data will be fitted to an equation of the form: % Activation=% L-glutamate EC20+{(% MAX−% L-glutamate EC20)/[1+([Test]/EC50)^N]}, where [Test] will be the concentration of PAM (test article), EC50 will be the concentration of PAM producing half-maximal activation, N will be the Hill coefficient, % L-glutamate EC20 will be the percentage of the current Elicited with L-glutamate EC20, % MAX is the percentage of the current activated with the highest dose of PAM co-admitted with L-glutamate EC20 and % Activation will be the percentage of the current elicited with L-glutamate EC10-30 at each PAM concentration. The maximal amplitude of the evoked currents are measured and defined as Peak Current Amplitude (PCA).

Test [2] deals with GluN2B glutamate receptors (Homo sapiens (Human), UniProt Q05586+Q13224). As to the kind of experiment: Whole-cell patch clamp of mammalian cells (Ionworks Barracuda), positive allosteric modulation, GluN2B. Format: cell-based. Particulars: for Emax: read-out: Avg Emax 2B (%). On the procedure:
as §1, §2, §3, §4

The mark [3] stands for this setting: HEK293 cells, % potentiation of current elicited with EC20 L-glutamate and 30 μM glycine, read-out: Avg Emax 2A (%).
Setting [4] is: HEK293 cells, co-application with EC20 L-glutamate and 30 μM glycine, 8-point concentration-response, read-out: Avg EC50 2A.
Where [5] appears, read: % potentiation of current elicited with EC20 L-glutamate and 30 μM glycine.
The mark [6] stands for this setting: co-application with EC20 L-glutamate and 30 μM glycine, 8-point concentration-response, read-out: Avg EC50 2B.
[7] abbreviates: HEK293, read-out: Avg Emax 2A (%).

We go through 26 compounds from patent US11149054B2, “Oxysterols and methods of use thereof” (Sage Therapeutics, Inc., priority 2016, dated 2021).

Like-named read-outs stand apart in the source and are kept apart here.

GluN2B glutamate receptors, sequence (Q13224 27-1484, other chains not shown): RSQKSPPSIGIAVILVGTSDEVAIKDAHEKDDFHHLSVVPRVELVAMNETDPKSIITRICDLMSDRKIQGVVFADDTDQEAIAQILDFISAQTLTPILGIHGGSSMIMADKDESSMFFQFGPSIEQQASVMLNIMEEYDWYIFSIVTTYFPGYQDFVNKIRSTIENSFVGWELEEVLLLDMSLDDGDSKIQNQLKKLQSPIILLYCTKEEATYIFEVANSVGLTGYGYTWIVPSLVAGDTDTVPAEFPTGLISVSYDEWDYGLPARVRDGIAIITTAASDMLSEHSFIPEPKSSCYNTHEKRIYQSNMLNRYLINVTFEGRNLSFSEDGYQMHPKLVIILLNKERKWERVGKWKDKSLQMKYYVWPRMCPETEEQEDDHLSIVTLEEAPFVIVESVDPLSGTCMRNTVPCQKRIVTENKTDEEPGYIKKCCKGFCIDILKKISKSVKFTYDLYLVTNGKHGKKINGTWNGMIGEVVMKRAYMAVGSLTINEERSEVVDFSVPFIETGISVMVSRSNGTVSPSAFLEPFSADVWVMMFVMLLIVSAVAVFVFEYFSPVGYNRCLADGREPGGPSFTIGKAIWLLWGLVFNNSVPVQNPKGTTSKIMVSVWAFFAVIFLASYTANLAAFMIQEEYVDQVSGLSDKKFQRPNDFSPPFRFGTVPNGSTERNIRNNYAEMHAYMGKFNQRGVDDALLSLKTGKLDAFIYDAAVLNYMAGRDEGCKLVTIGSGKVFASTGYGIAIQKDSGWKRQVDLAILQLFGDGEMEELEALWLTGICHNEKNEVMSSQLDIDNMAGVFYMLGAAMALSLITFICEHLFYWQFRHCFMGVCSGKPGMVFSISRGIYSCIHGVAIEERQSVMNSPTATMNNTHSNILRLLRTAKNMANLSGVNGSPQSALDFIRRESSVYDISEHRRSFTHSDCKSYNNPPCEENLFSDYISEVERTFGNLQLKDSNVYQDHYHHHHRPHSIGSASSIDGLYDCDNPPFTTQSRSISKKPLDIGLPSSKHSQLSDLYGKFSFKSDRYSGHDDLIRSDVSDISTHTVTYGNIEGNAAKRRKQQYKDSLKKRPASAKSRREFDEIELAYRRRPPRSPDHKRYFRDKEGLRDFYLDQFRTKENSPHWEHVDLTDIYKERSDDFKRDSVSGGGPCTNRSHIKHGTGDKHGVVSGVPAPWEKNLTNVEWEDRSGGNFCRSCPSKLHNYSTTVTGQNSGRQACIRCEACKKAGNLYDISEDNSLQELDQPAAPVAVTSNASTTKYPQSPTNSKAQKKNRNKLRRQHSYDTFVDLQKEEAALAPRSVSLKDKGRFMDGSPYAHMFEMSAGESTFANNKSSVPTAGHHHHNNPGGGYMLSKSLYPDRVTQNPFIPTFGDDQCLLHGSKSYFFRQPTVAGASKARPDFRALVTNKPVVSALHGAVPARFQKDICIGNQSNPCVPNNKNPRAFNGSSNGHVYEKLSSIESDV
GlunN1/GluN2A glutamate receptors, sequence (Q12879 23-1464, other chains not shown): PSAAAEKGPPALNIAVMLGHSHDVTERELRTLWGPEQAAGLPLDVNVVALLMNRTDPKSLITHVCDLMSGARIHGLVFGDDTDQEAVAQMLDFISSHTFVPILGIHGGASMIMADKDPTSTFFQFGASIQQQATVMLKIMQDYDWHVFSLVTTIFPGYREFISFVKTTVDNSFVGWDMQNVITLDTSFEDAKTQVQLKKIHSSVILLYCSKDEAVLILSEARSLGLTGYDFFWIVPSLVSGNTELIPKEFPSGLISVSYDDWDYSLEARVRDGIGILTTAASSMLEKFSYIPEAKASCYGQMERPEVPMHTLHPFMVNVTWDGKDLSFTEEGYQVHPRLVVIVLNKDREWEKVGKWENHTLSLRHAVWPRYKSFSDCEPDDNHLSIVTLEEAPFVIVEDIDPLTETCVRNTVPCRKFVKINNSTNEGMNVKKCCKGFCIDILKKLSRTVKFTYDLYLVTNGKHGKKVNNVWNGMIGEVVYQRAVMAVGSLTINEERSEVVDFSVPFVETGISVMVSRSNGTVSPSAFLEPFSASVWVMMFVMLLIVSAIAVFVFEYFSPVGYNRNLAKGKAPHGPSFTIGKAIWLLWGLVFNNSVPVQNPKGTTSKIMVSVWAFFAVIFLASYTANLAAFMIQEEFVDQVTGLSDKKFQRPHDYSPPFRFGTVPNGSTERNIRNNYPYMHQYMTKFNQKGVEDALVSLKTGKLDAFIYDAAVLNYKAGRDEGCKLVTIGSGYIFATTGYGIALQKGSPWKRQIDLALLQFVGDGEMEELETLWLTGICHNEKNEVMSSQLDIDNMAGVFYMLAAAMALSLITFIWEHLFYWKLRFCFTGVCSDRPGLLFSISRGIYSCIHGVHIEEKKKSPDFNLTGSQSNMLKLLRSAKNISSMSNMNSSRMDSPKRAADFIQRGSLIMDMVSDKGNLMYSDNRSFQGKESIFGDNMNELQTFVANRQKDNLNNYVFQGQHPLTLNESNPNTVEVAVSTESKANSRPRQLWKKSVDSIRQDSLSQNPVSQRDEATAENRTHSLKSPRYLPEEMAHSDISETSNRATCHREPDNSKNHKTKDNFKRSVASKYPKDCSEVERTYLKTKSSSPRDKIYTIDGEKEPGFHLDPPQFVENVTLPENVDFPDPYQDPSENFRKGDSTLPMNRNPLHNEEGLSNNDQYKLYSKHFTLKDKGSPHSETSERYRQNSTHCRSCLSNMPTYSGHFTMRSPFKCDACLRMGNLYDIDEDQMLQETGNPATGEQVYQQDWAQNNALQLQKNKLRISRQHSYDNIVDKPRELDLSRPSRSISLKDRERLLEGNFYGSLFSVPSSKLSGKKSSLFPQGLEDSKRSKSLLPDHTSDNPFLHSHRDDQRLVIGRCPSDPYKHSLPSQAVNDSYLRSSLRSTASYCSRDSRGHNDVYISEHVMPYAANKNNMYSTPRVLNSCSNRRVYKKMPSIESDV

With `C[C@H](CCC[C@@H](O)C(F)(F)F)[C@H]1CC[C@H]2[C@@H]3CC[C@H]4C[C@](O)(C(F)(F)F)CC[C@]4(C)[C@H]3CC[C@]12C` [Compound 3114], the Emax in test [1] (setting [3]) is 318%; in test [2] (setting [5]) it was 294%. The EC50 came out at 382 nM in test [1] (setting [4]) and 244 nM in test [2] (setting [6]).
`CC[C@H](O)CC[C@@H](C)[C@H]1CC[C@H]2[C@@H]3CC[C@H]4C[C@](O)(CC)CC[C@@H]4[C@H]3CC[C@]12C` [Compound 8809]: the EC50 in test [1] came out at 533 nM; in test [2], 160 nM. Further, the Emax in test [1] (setting [7]) came to 73.6%; in test [2] it was 78.2%.
With `C[C@H](CCC1(O)CCC(C(C)(C)C)CC1)[C@H]1CC[C@H]2[C@@H]3CC[C@H]4C[C@](O)(C(F)(F)F)CC[C@]4(C)[C@H]3CC[C@]12C` (stereo partly shown) [Compound 4360], the results for the Emax in test [1] (setting [3]) and in test [2] (setting [5]) were 38.1% and 14.6%, respectively.
Consider `CC[C@]1(O)CC[C@H]2[C@@H](CC[C@@H]3[C@@H]2CC[C@]2(C)[C@@H]([C@H](C)CC[C@@H](O)C(C)C)CC[C@@H]32)C1` [Compound 4B77], for which the Emax in test [1] (setting [3]) came to 467%; in test [2] (setting [5]), 320%. For the same compound, the concentration giving a half-maximal response (EC50) came out at 467 nM in test [1] (setting [4]) and 298 nM in test [2] (setting [6]).
As to `C[C@H](CC[C@@H](O)C(C)(C)C)[C@H]1CC[C@H]2[C@@H]3CC[C@@H]4C[C@](O)(C(F)(F)F)CC[C@]4(C)[C@H]3CC[C@]12C` [Compound 3788], the EC50 in test [1] turned out to be 1320 nM; in test [2], 1120 nM.
Consider `C[C@H](CC[C@@H](O)C1CCCCC1)[C@H]1CC[C@H]2[C@@H]3CC[C@H]4C[C@](O)(C(F)(F)F)CC[C@]4(C)[C@H]3CC[C@]12C` [Compound 4156], for which the EC50 in test [1] and in test [2] was > 10000 nM throughout. Also, the results for the Emax in test [1] (setting [3]) and in test [2] (setting [5]) were 10.6% and 20.1%, respectively.
As for `CCC(O)CC[C@@H](C)[C@H]1CC[C@H]2[C@@H]3CC=C4C[C@](O)(CC)CC[C@@H]4[C@H]3CC[C@]12C` (stereo partly shown) [Compound 8564], the EC50 in test [1] is 469 nM; in test [2] it was 489 nM. Further, the Emax was 252% in test [1] (setting [3]) and 310% in test [2] (setting [5]).
Take `CC[C@]1(O)CC[C@@]2(C)C(=CC[C@H]3[C@@H]4CC[C@H]([C@H](C)CC[C@@H](O)c5ccc(F)cc5)[C@@]4(C)CC[C@@H]32)C1` [Compound 7147]: in test [1] (setting [7]), the Emax was determined as 200%. In addition, in test [2], the EC50 is 91.7 nM and the Emax turned out to be 242%.
As to `CC[C@]1(O)CC[C@H]2C(=CC[C@@H]3[C@@H]2CC[C@]2(C)[C@@H]([C@H](C)CCCC4(O)CCC(C)(C)CC4)CC[C@@H]32)C1` [Compound 10317], the Emax in test [1] (setting [3]) is 56.7%; in test [2] (setting [5]), 59.9%.
For `C[C@H](CC[C@@H](O)C(C)(C)C)[C@H]1CC[C@H]2[C@@H]3CC=C4C[C@](O)(C(F)(F)F)CC[C@]4(C)[C@H]3CC[C@]12C` [Compound 3382], the results for the EC50 in test [1] and in test [2] were 67.6 nM and 126 nM, respectively.
Take `CC[C@]1(O)CC[C@@]2(C)C(=CC[C@H]3[C@@H]4CC[C@H]([C@H](C)CCC(O)c5ccccn5)[C@@]4(C)CC[C@@H]32)C1` (stereo partly shown) [Compound 6457]: the half-maximal effective concentration (EC50) came out at 732 nM in test [1] and 524 nM in test [2]. The Emax was determined as 198% in test [1] (setting [3]) and 168% in test [2] (setting [5]).
As for `CC[C@]1(O)CC[C@@]2(C)[C@@H](CC[C@@H]3[C@@H]2CC[C@]2(C)[C@@H]([C@H](C)CC[C@@H](O)c4ccccn4)CC[C@@H]32)C1` [Compound 7030], the Emax in test [1] (setting [3]) was determined as 28.3%; in test [2] (setting [5]), 74.7%.
Regarding `CC(C)[C@H](O)CC[C@@H](C)[C@H]1CC[C@H]2[C@@H]3CC[C@H]4C[C@](O)(C(F)(F)F)CC[C@]4(C)[C@H]3CC[C@]12C` [Compound 2B], the EC50 in test [1] turned out to be 131 nM; in test [2], 143 nM. Further, the Emax in test [1] (setting [3]) was found to be 625%; in test [2] (setting [5]), 965%.
Regarding `C[C@H](CC[C@@H](O)C1CCC1)[C@H]1CC[C@H]2[C@@H]3CC[C@H]4C[C@](O)(C(F)(F)F)CC[C@]4(C)[C@H]3CC[C@]12C` [7−B], the concentration for a half-maximal effect (EC50) came out at 347 nM in test [1] and 306 nM in test [2]. Also, the Emax in test [1] (setting [3]) is 356%; in test [2] (setting [5]) it was 352%.
In the same order, the values of `C[C@H](CCC(O)C(F)(F)F)[C@H]1CC[C@H]2[C@@H]3CC[C@H]4C[C@](O)(C(F)(F)F)CC[C@]4(C)[C@H]3CC[C@]12C` (stereo partly shown) [Compound 2918] are 298 nM, 339 nM, 532% and 506%.
Regarding `CC[C@]1(O)CC[C@@]2(C)C(=CC[C@H]3[C@@H]4CC[C@H]([C@H](C)CC[C@@H](O)c5ccccc5F)[C@@]4(C)CC[C@@H]32)C1` [Compound 7282], the EC50 in test [1] was found to be 95.9 nM; in test [2] it was 174 nM.
For `CC[C@H](O)CC[C@@H](C)[C@H]1CC[C@H]2[C@@H]3CC=C4C[C@](O)(CC)CC[C@@H]4[C@H]3CC[C@]12C` [Compound 8585], the EC50 in test [1] came to 286 nM; in test [2], 237 nM. Also, the Emax was 194% in test [1] (setting [3]) and 233% in test [2] (setting [5]).
Take `CC[C@]1(O)CC[C@H]2C(=CC[C@@H]3[C@@H]2CC[C@]2(C)[C@@H]([C@H](C)CCC(O)C(C)(C)C)CC[C@@H]32)C1` (stereo partly shown) [Compound 8361]: the EC50 in test [1] is 87 nM; in test [2], 136 nM. Also, the Emax was 252% in test [1] (setting [7]) and 309% in test [2].
As for `CC[C@]1(O)CC[C@@]2(C)[C@@H](CC[C@@H]3[C@@H]2CC[C@]2(C)[C@@H]([C@H](C)CC[C@H](O)c4cccnc4)CC[C@@H]32)C1` [Compound 6754], the Emax came to 22.3% in test [1] (setting [3]) and 38.8% in test [2] (setting [5]). Besides, the EC50 in test [1] (setting [4]) and in test [2] (setting [6]) was > 10000 nM throughout.
`C[C@H](CCC1(O)CCC(C)(C)CC1)[C@H]1CC[C@H]2[C@@H]3CC[C@H]4C[C@](O)(C(F)(F)F)CC[C@]4(C)[C@H]3CC[C@]12C` [Compound E-2817]: the values for the Emax in test [1] (setting [3]) and in test [2] (setting [5]) were 29.9% and 20.4%, respectively.
Regarding `CC(C)[C@H]1CC[C@](O)(CC[C@@H](C)[C@H]2CC[C@H]3[C@@H]4CC[C@H]5C[C@](O)(C(F)(F)F)CC[C@]5(C)[C@H]4CC[C@]23C)CC1` [Compound 4259], the EC50 in test [1] and in test [2] was > 10000 nM each time. Moreover, the Emax in test [1] (setting [3]) is -13.3%; in test [2] (setting [5]) it was 24.3%.
Regarding `CC[C@]1(O)CC[C@H]2C(=CC[C@@H]3[C@@H]2CC[C@]2(C)[C@@H]([C@H](C)CCC[C@@H](C)O)CC[C@@H]32)C1` [Compound 9792], the Emax in test [1] (setting [3]) is 64.5%; in test [2] (setting [5]) it was 58.2%.
For `C[C@H](CC[C@H](O)C1CCOCC1)[C@H]1CC[C@H]2[C@@H]3CC[C@H]4C[C@](O)(C(F)(F)F)CC[C@]4(C)[C@H]3CC[C@]12C` [Compound 2080], the EC50 amounted to 165 nM in test [1] and 187 nM in test [2]. Moreover, the Emax in test [1] (setting [3]) came out at 77.2%; in test [2] (setting [5]) it was 147%.
For `C[C@H](CC[C@H](O)C(C)(C)C)[C@H]1CC[C@H]2[C@@H]3CC[C@@H]4C[C@](O)(C(F)(F)F)CC[C@]4(C)[C@H]3CC[C@]12C` [Compound 3634], the values for the EC50 in test [1] and in test [2] were 423 nM and 404 nM, respectively.
As to `C[C@H](CCC1(O)CCC(C)(C)CC1)[C@H]1CC[C@H]2[C@@H]3CC=C4C[C@](O)(C(F)(F)F)CC[C@]4(C)[C@H]3CC[C@]12C` [Compound 4799], the EC50 in test [1] is > 10000 nM; in test [2] it was 760 nM. Also, the Emax in test [1] (setting [3]) amounted to 36.1%; in test [2] (setting [5]) it was 32.8%.
In the case of `CC[C@]1(O)CC[C@H]2[C@@H](CC[C@@H]3[C@@H]2CC[C@]2(C)[C@@H]([C@H](C)CCCO)CC[C@@H]32)C1` [Compound 376], the EC50 in test [1] and in test [2] was > 10000 nM in each case. For the same compound, the Emax in test [1] (setting [3]) turned out to be 49.9%; in test [2] (setting [5]), 59.8%.
